Assay results taken from US20250129044A1 (priority 2021, published 2025).

Biological target: sodium channel isoforms (Homo sapiens, UniProt P35498)
Assay type: cell-based
Settings: area under the sodium current trace, step from −120 mV to 0 mV, HEK cells
Method: The sodium channel isoforms of interest are stably expressed in Human Embryonic Kidney Cells and the currents that flow through those channels in response to a depolarizing voltage clamp step from −120 mV to 0 mV are measured in the presence of increasing concentrations of the chemical agents. The area under the sodium current trace which correlates to the magnitude of sodium flux through the cell membrane is used to quantify the effects on gating of the channels. Other parameters that are measured in the assay include the peak current, time constant of open state inactivation and the voltage dependence of steady state inactivation properties. The concentration responses are used to determine potency of each chemical agents effects on modulating the sodium channel isoform gating. Such techniques are known to those skilled in the art, and may be developed, using current technologies, into low or medium throughput assays for evaluating compounds for their ability to modulate sodium channel behaviour.

O=C(Nc1c(-c2ccccc2F)ccnc1C1CCC(F)(F)CC1)c1cnn(C2CCC2)c1 [Example 1, 1-cyclobutyl-N-[2-(4,4-difluorocyclohexyl)-4-(2-fluorophenyl)-3-pyridyl]pyrazole-4-carboxamide]
Empirical Emax: ++++ (++++ indicates a value greater than 7.5)
